Test results: PubChem BioAssay AID278 (DTP/NCI, 2004)
“And” between values parts separate entries of the source, which are not always exact repeats. Equal entries are not always repeated. Records with an inconclusive call do not appear. Residues, ends and D or L forms follow the SMILES beside them. *: point of attachment. Trt = c1ccc(C(c2ccccc2)(c2ccccc2)*)cc1; Cbz = O=C(OCc1ccccc1)*; Bn = c1ccc(C*)cc1; βAla = NCCC(=O)O

System: nude mice, A549 intrarenal xenograft, tumor weight change
Experiment: NCI In Vivo Anticancer Drug Screen. Data for tumor model A549 Human Adenocarcinoma of Lung with characteristics of Type II Alveolar Epithelial cells (intrarenal inoculation) in NU/NU BALB/C (nude) mice
Conditions: endpoint: mean tumor weight change, schedule: Q04DX003 (ip), higher = larger tumour
Method in brief: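 Mice bearing transplantable tumors were treated and survival or tumor size recorded. Values are given as treated-group measurement divided by vehicle-control measurement (T/C).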

[1] = dose: 100.0 mg/kg/injection, vehicle: Klucel (hydroxypropylcellulose) (HPC)
[2] = dose: 150.0 mg/kg/injection, vehicle: saline with Tween-80
[3] = dose: 300.0 mg/kg/injection, vehicle: saline with Tween-80
[4] = dose: 600.0 mg/kg/injection, vehicle: saline with Tween-80
[5] = dose: 150.0 mg/kg/injection, vehicle: Klucel (hydroxypropylcellulose) (HPC)
[6] = dose: 300.0 mg/kg/injection, vehicle: Klucel (hydroxypropylcellulose) (HPC)
[7] = dose: 37.5 mg/kg/injection, vehicle: Klucel (hydroxypropylcellulose) (HPC)
[8] = dose: 75.0 mg/kg/injection, vehicle: Klucel (hydroxypropylcellulose) (HPC)
[9] = dose: 50.0 mg/kg/injection, vehicle: saline with Tween-80
[10] = dose: 100.0 mg/kg/injection, vehicle: saline with Tween-80
[11] = dose: 25.0 mg/kg/injection, vehicle: saline
[12] = dose: 100.0 mg/kg/injection, vehicle: saline
[13] = dose: 12.5 mg/kg/injection, vehicle: saline with Tween-80
[14] = dose: 25.0 mg/kg/injection, vehicle: saline with Tween-80
[15] = dose: 50.0 mg/kg/injection, vehicle: saline

Structure (SMILES): O=C(O)C1CC(O)CN1 (stereo unspecified)
- T/C (dose: 150.0 mg/kg/injection, vehicle: saline): 70 % of control
- T/C (dose: 300.0 mg/kg/injection, vehicle: saline): 65 % of control
- T/C (dose: 600.0 mg/kg/injection, vehicle: saline): 110 % of control
- T/C (dose: 1200.0 mg/kg/injection, vehicle: saline): 71 % of control

Structure (SMILES): CC1=CCCC2C1(C)CCC(C)C2(C)Cc1cc(O)ccc1O (stereo unspecified)
- T/C [1]: 16 % of control

Structure (SMILES): NC(=O)c1cc(Cl)nc2nc(Cl)nc(N)c12
- T/C [2]: 111 % of control
- T/C [3]: 89 % of control
- T/C [4]: 55 % of control
- T/C (dose: 1200.0 mg/kg/injection, vehicle: saline with Tween-80): 93 % of control

Structure (SMILES): CC1=C[P+](c2ccccc2)(c2ccccc2)C=C(c2ccccc2)O1
- T/C (dose: 1.0 mg/kg/injection, vehicle: suspension in saline): 94 % of control
- T/C (dose: 2.0 mg/kg/injection, vehicle: suspension in saline): 89 % of control
- T/C (dose: 8.0 mg/kg/injection, vehicle: suspension in saline): 80 % of control

Structure (SMILES): S=c1sc2ccccc2n1CN1CCOCC1
- T/C [2]: 81 % of control
- T/C [3]: 172 % of control
- T/C [4]: 57 % of control

Structure (SMILES): O=C(NC(Cc1ccc(I)cc1)C(=O)O)c1cccc(Br)c1 (stereo unspecified)
- T/C [1]: 99 % of control
- T/C [5]: 35 % of control
- T/C (dose: 200.0 mg/kg/injection, vehicle: Klucel (hydroxypropylcellulose) (HPC)): 45 % of control
- T/C [6]: 35 % of control

Structure (SMILES): Cc1ccc(C(=O)NC2C(=O)NC(C(C)C)C(=O)N3CCCC3C(=O)N(C)CC(=O)N(C)C(C(C)C)C(=O)OC2C)c2c1Oc1c(c(C(=O)NC3C(=O)NC(C(C)C)C(=O)N4CCCC4C(=O)N(C)CC(=O)N(C)C(C(C)C)C(=O)OC3C)c3nc(-c4ccccc4)c(=O)oc3c1C)N2 (stereo unspecified)
- T/C (dose: 0.36 mg/kg/injection, vehicle: water): 101 % of control
- T/C (dose: 0.5 mg/kg/injection, vehicle: water): 61 % of control
- T/C (dose: 0.6 mg/kg/injection, vehicle: water): 94 % of control
- T/C (dose: 1.67 mg/kg/injection, vehicle: water): 62 % of control

Structure (SMILES): CC1=C(C(N)=O)C(c2ccccc2)NC(=S)N1 (stereo unspecified)
- T/C [7]: 66 % of control
- T/C [8]: 92 % of control
- T/C [5]: 83 % of control
- T/C [6]: 181 % of control

Structure (SMILES): COc1cc(C)c(C2NC(=O)c3ccccc3N2)cc1C (stereo unspecified)
- T/C [8]: 5 % of control
- T/C (dose: 129.6 mg/kg/injection, vehicle: Klucel (hydroxypropylcellulose) (HPC)): 161 % of control
- T/C [5]: 47 % of control
- T/C [6]: 6 % of control
- T/C (dose: 360.0 mg/kg/injection, vehicle: Klucel (hydroxypropylcellulose) (HPC)): 112 % of control
- T/C (dose: 1000.0 mg/kg/injection, vehicle: Klucel (hydroxypropylcellulose) (HPC)): 65 % of control

Structure (SMILES): Cc1ccoc1
- T/C [9]: 78 % of control
- T/C [10]: 89 % of control
- T/C (dose: 200.0 mg/kg/injection, vehicle: saline with Tween-80): 75 % of control

Structure (SMILES): O=c1[nH]cc(F)c(=O)[nH]1
- T/C [11]: 207 % of control
- T/C [12]: 28 % of control

Structure (SMILES): O=[N+]([O-])c1ccc(N(CCO)CCO)c2c1no[n+]2[O-]
- T/C [13]: 53 % of control
- T/C [14]: 83 % of control
- T/C [9]: 34 % of control

Structure (SMILES): C=C(Cl)C(=NC(C)(C)C)Nc1ccccc1C
- T/C (dose: 10.0 mg/kg/injection, vehicle: Klucel + Tween-80): 73 % of control
- T/C (dose: 20.0 mg/kg/injection, vehicle: Klucel + Tween-80): 68 % of control

Structure (SMILES): CCOc1cc2c(cc1C(C)c1ccc(OC)cc1)OCO2 (stereo unspecified)
- T/C (dose: 54.0 mg/kg/injection, vehicle: distilled water + alcohol): 67 % of control
- T/C (dose: 90.0 mg/kg/injection, vehicle: distilled water + alcohol): 48 % of control
- T/C (dose: 250.0 mg/kg/injection, vehicle: distilled water + alcohol): 4 % of control

Structure (SMILES): C=C1c2cccc(O)c2C(O)=C2C(=O)[C@]3(O)C(O)=C(C(N)=O)C(=O)[C@@H](N(C)C)[C@@H]3[C@@H](O)[C@H]12
- T/C [8]: 96 % of control

Structure (SMILES): O=[N+]([O-])c1ccc([I+]c2ccccc2)cc1
- T/C (dose: 18.75 mg/kg/injection, vehicle: Klucel (hydroxypropylcellulose) (HPC)): 35 % of control
- T/C [7]: 101 % of control
- T/C [8]: 51 % of control

Structure (SMILES): Cc1ccc(C(=O)Nc2ccc(S(=O)(=O)O)c3cc(S(=O)(=O)O)cc(S(=O)(=O)O)c23)cc1NC(=O)c1cccc(NC(=O)Nc2cccc(C(=O)Nc3cc(C(=O)Nc4ccc(S(=O)(=O)O)c5cc(S(=O)(=O)O)cc(S(=O)(=O)O)c45)ccc3C)c2)c1
- T/C [11]: 99 % of control
- T/C [15]: 100 % of control
- T/C [12]: 112 % of control

Structure (SMILES): C[n+]1c(-c2ccc(NC(=O)c3ccc(C(=O)Nc4ccc(-c5cn6ccccc6[n+]5C)cc4)cc3)cc2)cn2ccccc21
- T/C [13]: 47 % of control
- T/C [14]: 49 % of control

Structure (SMILES): Oc1c(Cl)cc(Cl)cc1C=NCCSc1ccc(Cl)cc1
- T/C [5]: 90 % of control
- T/C [6]: 100 % of control
- T/C (dose: 600.0 mg/kg/injection, vehicle: Klucel (hydroxypropylcellulose) (HPC)): 83 % of control

Structure (SMILES): O=S(=O)(c1cccc(N=C=S)c1)c1cccc(N=C=S)c1
- T/C (dose: 30.0 mg/kg/injection, vehicle: Klucel (hydroxypropylcellulose) (HPC)): 67 % of control

Structure (SMILES): Cc1c(O)/c(=C\O)c2nc3c(=O)ccc(C(=O)NCCN(C)C)c3[nH]c2c1=O
- T/C (dose: 50.0 mg/kg/injection, vehicle: water): 120 % of control
- T/C (dose: 100.0 mg/kg/injection, vehicle: water): 48 % of control
- T/C (dose: 120.0 mg/kg/injection, vehicle: water): 52 % of control and 75 % of control

Structure (SMILES): c1ccc2c3c(c4c(c2c1)CN(C1CCCCC1)CO4)OCN(C1CCCCC1)C3
- T/C (dose: 37.5 mg/kg/injection, vehicle: distilled water + Tween-80): 65 % of control

Structure (SMILES): COc1ccc(C=C(C(=O)CCN(C)C)C(=O)CCN(C)C)cc1
- T/C [15]: 96 % of control
- T/C (dose: 200.0 mg/kg/injection, vehicle: saline): 101 % of control

Structure (SMILES): COC(=O)C(CSC(c1ccccc1)(c1ccccc1)c1ccccc1)NC(=O)C(CSCc1ccccc1)NC(=O)CCNC(=O)OCc1ccccc1 (stereo unspecified) ({Cbz-βAla}-Cys(Bn)-Cys(Trt)-OMe; configuration not given here)
- T/C (dose: 100.0 mg/kg/injection, vehicle: Klucel + Tween-80): 153 % of control
- T/C (dose: 200.0 mg/kg/injection, vehicle: Klucel + Tween-80): 112 % of control
- T/C (dose: 400.0 mg/kg/injection, vehicle: Klucel + Tween-80): 161 % of control
- T/C (dose: 800.0 mg/kg/injection, vehicle: Klucel + Tween-80): 109 % of control

Structure (SMILES): CCCCOCN(COCCCC)C12CC3CC(CC(C3)C1)C2
- T/C [10]: 123 % of control
- T/C (dose: 400.0 mg/kg/injection, vehicle: saline with Tween-80): 203 % of control
